US4416884A, “Piperazinylbenzoheterocyclic compounds” (Otsuka Pharmaceutical Co., Ltd., priority 1978, dated 1983)
≈ marks a conversion by molar mass, not a printed value. Like-named read-outs stand apart in the source and are kept apart here.

Columns and labels:
[1] = inactivation ratio by human serum protein; conditions: 3.1 mcg/ml, 37° C.
Protocol: A 1/15 mol/l phosphate buffer was added to powder of Moni-Trol 1 (dehydrated preparation of human serum, a product of Midori Juji Co., Ltd.) to prepare a composition having the same serum protein concentration as natural human serum and this preparation was labeled "100% human serum", an aliquot of the "100% human serum" preparation was mixed with the same volume of the above buffer to prepare "50% human serum" and another aliquot was mixed with 4 times as much as its volume of the buffer to prepare "20% human serum".

[2] = system: Test Organism 17 (Pseudomonas putida IFO 13696); assay: influence of the addition of horse serum on the MIC; type: cell-based
[3] = system: Test Organism 2 (Escherichia Coli NIHJ JC-2 (IFO 12734)); assay: as above; type: cell-based
[4] = system: Test Organism 1 (Escherichia Coli NIHJ); assay: as above; type: cell-based
[5] = system: Vibrio anguillarum IFO 13266; assay: antimicrobial activity on bacteria which cause infectious diseases in fish; type: cell-based
Protocol: (§1) The antimicrobial activity of the following test compounds on various test organisms listed below was determined by the serial dilution method on agar plate (Heart Infusion agar produced by Difco Co.) (see CHEMOTHERAPY 22, pp. 1126-1128 (1974)), and the minimum inhibitory concentrations (mcg/ml) obtained are shown in Table 1 below.
(§2) A sample of each test organism was prepared so that the population of the organism was 1×10^8 cells/ml (O.D. 660 mμ=0.07 to 0.16) and 1×10^6 cells/ml (which was obtained by diluting the above 1×10^8 cells/ml preparation).
(§3) In the same manner as above, the antimicrobial activity of the following compounds on various test organisms which cause infectious diseases in fish was determined.

[6] = system: Aeromonas salmonicida IFO 12659; assay: as above; type: cell-based
Protocol: as §1, §2, §3

[7] = system: Aeromonas hydrophila IFO 12658; assay: as above; type: cell-based
Protocol: as §1, §2, §3

[8] = system: Aeromonas hydrophila IFO 12981; assay: as above; type: cell-based
Protocol: as §1, §2, §3

[9] = system: Pseudomonas fluorescens IFO 12180; assay: as above; type: cell-based; conditions: IFO12180, read-out: Minimum Inhibitory Concentration
Protocol: as §1, §2, §3

[10] = system: Vibrio anguillarum IFO 12710; assay: as above; type: cell-based
Protocol: as §1, §2, §3

[11] = system: Pseudomonas fluorescens IFO 12568; assay: as above; type: cell-based
Protocol: as §1, §2, §3

[12] = system: Aeromonas salmonicida IFO 12718; assay: as above; type: cell-based
Protocol: as §1, §2, §3

[13] = system: Yersinia enterocolitica 0-5; assay: antimicrobial activity, serial dilution method on agar plate; type: cell-based
[14] = system: Corinebacterium diphteriae; assay: as above; type: cell-based
Procedure, shortened: (§4)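 Reported figure is the lowest compound level (mcg/ml) inhibiting growth on Heart Infusion agar in a serial plate dilution. Suspensions of 1×10^8 and 1×10^6 cells/ml served as inocula.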

[15] = system: Yersinia enterocolitica 0-3; assay: as above; type: cell-based
Procedure, shortened: as §4

[16] = system: Serattia marcescens IFO 12648; assay: as above; type: cell-based
Procedure, shortened: as §4

[17] = system: Klebsiella pneumoniae ST-101; assay: as above; type: cell-based
Procedure, shortened: as §4

[18] = system: Staphylococcus aureus FDA 209 P; assay: as above; type: cell-based
Procedure, shortened: as §4

[19] = read-out: Minimum Inhibitory Concentration, horse serum 0%, inoculum 10^6
[20] = read-out: Minimum Inhibitory Concentration, horse serum 0%, inoculum 10^8
[21] = read-out: Minimum Inhibitory Concentration, horse serum 10%, inoculum 10^6
[22] = read-out: Minimum Inhibitory Concentration, horse serum 10%, inoculum 10^8
[23] = read-out: Minimum Inhibitory Concentration, horse serum 20%, inoculum 10^6
[24] = read-out: Minimum Inhibitory Concentration, horse serum 20%, inoculum 10^8
[25] = read-out: Minimum Inhibitory Concentration, horse serum 40%, inoculum 10^6
[26] = read-out: Minimum Inhibitory Concentration, horse serum 40%, inoculum 10^8
[27] = read-out: Minimum Inhibitory Concentration, inoculum 1 × 10^6 cells/ml
[28] = read-out: Minimum Inhibitory Concentration, inoculum 1 × 10^8 cells/ml

CC1CCc2c(N3CCNCC3)ccc3c(=O)c(C(=O)O)cn1c23 (stereo not drawn) [A]
fraction unbound at 2 h ([1]; 10% human serum): 0.918 | fraction unbound at 2 h ([1]; 20% human serum): 1 | fraction unbound at 2 h ([1]; 100% human serum): 1 | MIC ([2]; IFO13696, read-out: Minimum Inhibitory Concentration, horse serum 0%, inoculum 10^6): 0.2 µg/mL (≈ 0.611 µM) | MIC ([2]; IFO13696, read-out: Minimum Inhibitory Concentration, horse serum 0%, inoculum 10^8): 0.4 µg/mL (≈ 1.22 µM) | MIC ([2]; IFO13696, read-out: Minimum Inhibitory Concentration, horse serum 10%, inoculum 10^6): 0.2 µg/mL (≈ 0.611 µM) | MIC ([2]; IFO13696, read-out: Minimum Inhibitory Concentration, horse serum 10%, inoculum 10^8): 0.2 µg/mL (≈ 0.611 µM) | MIC ([2]; IFO13696, read-out: Minimum Inhibitory Concentration, horse serum 20%, inoculum 10^6): 0.2 µg/mL (≈ 0.611 µM) | MIC ([2]; IFO13696, read-out: Minimum Inhibitory Concentration, horse serum 20%, inoculum 10^8): 0.2 µg/mL (≈ 0.611 µM) | MIC ([2]; IFO13696, read-out: Minimum Inhibitory Concentration, horse serum 40%, inoculum 10^6): 0.2 µg/mL (≈ 0.611 µM) | MIC ([2]; IFO13696, read-out: Minimum Inhibitory Concentration, horse serum 40%, inoculum 10^8): 0.2 µg/mL (≈ 0.611 µM) | MIC [3, 19]: 1.6 µg/mL (≈ 4.89 µM) | MIC [3, 20]: 1.6 µg/mL (≈ 4.89 µM) | MIC [3, 21]: 0.8 µg/mL (≈ 2.44 µM) | MIC [3, 22]: 0.8 µg/mL (≈ 2.44 µM) | MIC [3, 23]: 0.8 µg/mL (≈ 2.44 µM) | MIC [3, 24]: 0.8 µg/mL (≈ 2.44 µM) | MIC [3, 25]: 0.4 µg/mL (≈ 1.22 µM) | MIC [3, 26]: 0.4 µg/mL (≈ 1.22 µM) | MIC [4, 19]: 6.3 µg/mL (≈ 19.2 µM) | MIC [4, 20]: 6.3 µg/mL (≈ 19.2 µM) | MIC [4, 21]: 3.1 µg/mL (≈ 9.47 µM) | MIC [4, 22]: 6.3 µg/mL (≈ 19.2 µM) | MIC [4, 23]: 3.1 µg/mL (≈ 9.47 µM) | MIC [4, 24]: 3.1 µg/mL (≈ 9.47 µM) | MIC [4, 25]: 3.1 µg/mL (≈ 9.47 µM) | MIC [4, 26]: 3.1 µg/mL (≈ 9.47 µM) | MIC ([5]; IFO13266, read-out: Minimum Inhibitory Concentration, inoculum 10^6): 0.1 µg/mL (≈ 0.305 µM) | MIC ([5]; IFO13266, read-out: Minimum Inhibitory Concentration, inoculum 10^8): 0.2 µg/mL (≈ 0.611 µM) | MIC ([6]; IFO12659, inoculum 10^6, read-out: Minimum Inhibitory Concentration): 0.2 µg/mL (≈ 0.611 µM) | MIC ([6]; IFO12659, inoculum 10^8, read-out: Minimum Inhibitory Concentration): 0.4 µg/mL (≈ 1.22 µM) | MIC ([7]; IFO12658, inoculum 10^6, read-out: Minimum Inhibitory Concentration): 0.1 µg/mL (≈ 0.305 µM) | MIC ([7]; IFO12658, inoculum 10^8, read-out: Minimum Inhibitory Concentration): 0.2 µg/mL (≈ 0.611 µM) | MIC ([8]; IFO12981, inoculum 10^6, read-out: Minimum Inhibitory Concentration): 0.2 µg/mL (≈ 0.611 µM) | MIC ([8]; IFO12981, inoculum 10^8, read-out: Minimum Inhibitory Concentration): 0.2 µg/mL (≈ 0.611 µM) | MIC [9]: 3.1 µg/mL (≈ 9.47 µM) | MIC ([10]; IFO12710, read-out: Minimum Inhibitory Concentration, inoculum 10^6): 3.1 µg/mL (≈ 9.47 µM) | MIC ([10]; IFO12710, read-out: Minimum Inhibitory Concentration, inoculum 10^8): 3.1 µg/mL (≈ 9.47 µM) | MIC ([11]; IFO12568, read-out: Minimum Inhibitory Concentration, inoculum 10^6): 12.5 µg/mL (≈ 38.2 µM) | MIC ([11]; IFO12568, read-out: Minimum Inhibitory Concentration, inoculum 10^8): 25 µg/mL (≈ 76.4 µM) | MIC ([12]; IFO12718, inoculum 10^6, read-out: Minimum Inhibitory Concentration): 0.2 µg/mL (≈ 0.611 µM) | MIC ([12]; IFO12718, inoculum 10^8, read-out: Minimum Inhibitory Concentration): 0.4 µg/mL (≈ 1.22 µM) | MIC ([13]; Yersinia enterocolitica, 05, read-out: Minimum Inhibitory Concentration, inoculum 1 × 10^6 cells/ml): 0.8 µg/mL (≈ 2.44 µM) | MIC ([13]; Yersinia enterocolitica, 05, read-out: Minimum Inhibitory Concentration, inoculum 1 × 10^8 cells/ml): 0.8 µg/mL (≈ 2.44 µM) | MIC [14, 27]: 1.6 µg/mL (≈ 4.89 µM) | MIC [14, 28]: 1.6 µg/mL (≈ 4.89 µM) | MIC ([15]; Yersinia enterocolitica, 03, read-out: Minimum Inhibitory Concentration, inoculum 1 × 10^6 cells/ml): 1.6 µg/mL (≈ 4.89 µM) | MIC ([15]; Yersinia enterocolitica, 03, read-out: Minimum Inhibitory Concentration, inoculum 1 × 10^8 cells/ml): 3.1 µg/mL (≈ 9.47 µM) | MIC [16, 27]: 1.6 µg/mL (≈ 4.89 µM) | MIC [16, 28]: 3.1 µg/mL (≈ 9.47 µM) | MIC ([17]; ST101, read-out: Minimum Inhibitory Concentration, inoculum 1 × 10^6 cells/ml): 0.2 µg/mL (≈ 0.611 µM) | MIC ([17]; ST101, read-out: Minimum Inhibitory Concentration, inoculum 1 × 10^8 cells/ml): 0.4 µg/mL (≈ 1.22 µM) | MIC ([18]; FDA209, read-out: Minimum Inhibitory Concentration, inoculum 1 × 10^6 cells/ml): 3.1 µg/mL (≈ 9.47 µM) | MIC ([18]; FDA209, read-out: Minimum Inhibitory Concentration, inoculum 1 × 10^8 cells/ml): 6.3 µg/mL (≈ 19.2 µM)
